According to patent US20250172577A1, “METHODS FOR THE DETECTION AND TREATMENT OF CANCER” (Board of Regents, The University of Texas System, priority 2022, published 2025):
Like-named read-outs stand apart in the source and are kept apart here.

Tests used:
[1] = tested on: mouse IPMN cell line LGKC 4861; assay: Subcutaneous LGKC 4861 implant in athymic nude mice, tumor volume; type: in vivo; settings: 3 mg/kg orally every other day from day 8 for 2 weeks, vs vehicle (saline)
[2] = In vitro toxicity assay (MTS assay), mouse IPMN cell line LGKC 4861; type: cell-based
Experimental: (§1) Experiments were performed in technical triplicates. Statistical significance was determined by 2-sided Student T-test. […] UGT8 inhibitor UGT8-IN-1 or vehicle control (saline) was orally administrated every other day (3 mg/kg) from day-8 post cancer cell implantation for 2 weeks. Tumor volume was measured every 3 days. Statistical significance was determined by 2-way repeated measures ANOVA and treatment factor 2-sided p-value reported.
(§2) In vitro toxicity assays (MTS assays) were performed using three independent mouse IPMN cell lines (LGKC 4301, LGKC 4838, and LGKC 4861). Briefly, each cell line was treated with either vehicle control or the UGT8 inhibitors UGT8-IN-1 or zoledronic acid. Experiments were performed in technical triplicates. Statistical significance was determined by 2-sided Student T-test.

[3] = target: T1, UGT8 (Mus musculus, UniProt Q64676); settings: cited from earlier work
T1 construct: host or cells: mouse (in vivo, endogenous enzyme)
T1 sequence (Q64676 21-541): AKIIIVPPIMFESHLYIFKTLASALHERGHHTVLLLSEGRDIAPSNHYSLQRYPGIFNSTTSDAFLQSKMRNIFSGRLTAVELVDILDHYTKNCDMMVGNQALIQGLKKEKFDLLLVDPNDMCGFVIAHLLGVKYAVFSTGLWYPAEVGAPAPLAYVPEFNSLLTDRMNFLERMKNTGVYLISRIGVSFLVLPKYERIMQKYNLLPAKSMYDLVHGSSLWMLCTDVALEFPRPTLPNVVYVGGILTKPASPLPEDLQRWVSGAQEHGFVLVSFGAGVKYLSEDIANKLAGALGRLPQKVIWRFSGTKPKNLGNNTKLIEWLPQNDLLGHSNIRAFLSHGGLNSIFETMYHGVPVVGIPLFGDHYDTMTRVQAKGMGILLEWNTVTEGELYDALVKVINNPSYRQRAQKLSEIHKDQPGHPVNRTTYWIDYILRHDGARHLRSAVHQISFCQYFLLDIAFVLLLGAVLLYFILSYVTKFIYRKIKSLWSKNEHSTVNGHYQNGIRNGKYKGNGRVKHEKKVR

[4] = tested on: LGKC 4301 cells; assay: In vitro toxicity assay (MTS assay), mouse IPMN cell line LGKC 4301; type: cell-based; settings: vs vehicle control
Experimental: as §1, §2

[5] = tested on: LGKC 4838 cells; assay: In vitro toxicity assay (MTS assay), mouse IPMN cell line LGKC 4838; type: cell-based; settings: vs vehicle control
Experimental: as §1, §2

Structure (SMILES)	tumor volume [1]	cytotoxicity [2] [%]	inhibition of incorporation of 13C-Gal into GalCer and sulfatide ([3]; 3 mg/kg) [%]	effective dose (ED)50 ([3]; incorporation of 13C-Gal into GalCer and sulfatide) [mg/kg]	effect on cell viability (comparison of the two UGT8 inhibitors) [4]	cytotoxicity ([2]; LGKC 4861 mouse IPMN cells, LGKC 4861 cells, MTS assay, vs vehicle control, read-out: reduction in cell viability) [%]	reduction in cell viability (comparison of the two UGT8 inhibitors) [5]
CNC(=O)c1csc2c(C(F)(F)F)cc(N3CCC(OC(=O)NC(C)COC(F)(F)F)CC3)nc12 (stereo in doubt) [UGT8-IN-1, [1-[3-(methylcarbamoyl)-7-(trifluoromethyl)thieno[3,2-b]pyridin-5-yl]piperidin-4-yl]N-[(2S)-1-(trifluoromethoxy)propan-2-yl]carbamate]	lower tumor volume compared to vehicle	~80	> 90	1	slightly more effective		
O=P(O)(O)C(O)(Cn1ccnc1)P(=O)(O)O [zoledronic acid, Zoledronic acid]					performed similarly	~55	greater reduction in cell viability than UGT8-IN-1
